Like-named read-outs stand apart in the source and are kept apart here.
What was measured:
[1] = Study-1 Part-A single ascending dose pharmacokinetics (plasma and urine); format: in vivo, human; conditions: for Fe: fraction excreted in urine; for AUC / AUC(0-t) / Cmax / Vd/F / half-life / Tmax / CL renal: human, oral; for AUC / AUC(0-t) / Cmax / Vd/F / half-life / Tmax: plasma; for Vd/F: read-out: Vz/F; for CL renal: urine and plasma; for Ae(0–t): urine
Description: These were phase I, randomised, double-blind, placebo-controlled studies designed to evaluate the safety, tolerability, PK and PD profiles of seletalisib following oral administration of single ascending doses and multiple ascending doses. Study-1 was a first-in-human, double-blind (sponsor-, investigator- and subject-blind) study that had two parts: Part-A evaluated seletalisib (single ascending doses) in healthy adults (including evaluation of food effects; Table 1); Part-B evaluated seletalisib (multiple ascending doses) in healthy adults and subjects with mild-to-moderate psoriasis. Study-2 was also a double-blind study of seletalisib (single and multiple ascending doses) in healthy subjects, which investigated higher doses.
Plasma concentrations of seletalisib were measured by high-performance liquid chromatography with tandem mass spectrometry (see Online Resource S1 for further details). The following PK parameters were determined in each study: AUC for seletalisib, maximum observed plasma concentration of seletalisib after a single dose (Cmax) and at steady-state (Cmaxss), time of occurrence of Cmax (tmax, obtained directly from the observed plasma concentration-time curves), minimum observed plasma concentration of seletalisib at steady-state immediately before the next dose would be administered (Ctrough), apparent terminal half-life, apparent volume of distribution after single dosing (Vz/F) and at steady-state (Vzss/F) and apparent total body clearance after single dosing (CL/F) and at steady-state (CLss/F). Accumulation factor based on AUC(0–24) [R(AUC)] and accumulation factor based on Cmax [R(Cmax)] were determined on multiple dose day 14. The following study-specific PK parameters were also determined: Study-1, total amount of seletalisib excreted in urine (Ae), renal clearance (CLr) and fraction of drug excreted in urine; Study-2, AUC(0–10) in BID dose groups, terminal elimination rate constant in plasma (λz), mean residence time (MRT) and linearity factor (LF [AUC(0–24)ss/AUC]).
Methods for the calculation of seletalisib PK parameters are detailed in Online Resource S1.
Seletalisib PK parameters were calculated via non-compartmental analysis methods from the individual concentration-time data using Phoenix WinNonlin version 6.2 (Certara, Princeton, NJ, USA). Urine (Study-1 only) and plasma PK parameters of seletalisib were reported for each subject and summarised by study part and dose group. Geometric mean and percentage geometric coefficient of variation (GeoCV%) were reported for all parameters except for tmax, which was reported using median and range. Dose proportionality for AUC and Cmax at Day_1 (Study-1 [Part-A & Part-B]; Study-2, single ascending dose-Day_1) and at steady state at Day_14 (Study-1 [Part-B]; Study-2, multiple ascending dose-Day_14) was examined via the power model and reported graphically. In Study-1, an assessment of food effect (fed versus fasted) was made for Cmax and AUC from the data for subjects who received the same dose in fed and fasted states in Part-A.

[2] = Study-1 Part-B safety/tolerability (adverse events, laboratory, OGTT), multiple doses; conditions: for Deaths: Study-1 multiple doses
Procedure: In Study-1 (Part-B), a total of 27 subjects were enrolled, two cohorts of healthy subjects (n = 9 in each) and one cohort of subjects with mild-to-moderate psoriasis (n = 9). Subjects were randomised (2:1) to ascending multiple doses of seletalisib (5, 8 and 15 mg) or placebo for 14 days.
Adverse events (AEs), serious AEs (SAEs), routine clinical laboratory parameters, vital signs and ECGs were monitored throughout the study periods and for ≤7 days post-administration of final-dose of seletalisib/placebo. The potential for seletalisib to cause gastrointestinal (GI) tract adverse effects was assessed by careful monitoring of subject reports of AEs such as abdominal pain, bloating, nausea, vomiting and alteration of bowel function (e.g. diarrhoea, constipation or bleeding). A formal safety review was conducted before each dose escalation. In Study-1 (Part-B), the potential for seletalisib to interfere with insulin signalling was assessed by monitoring blood glucose and C-peptide levels as part of the standard laboratory tests and by performance of oral glucose tolerance tests, measuring glucose and C-peptide levels, pre-dose and during exposure in all cohorts.
In each study, the primary population for analysis was the full analysis set (FAS), which comprised all subjects who had received ≥1 dose of seletalisib or placebo. PK analysis was performed on the PK per-protocol set (PK-PPS), which was a subset of the FAS consisting of subjects with no important protocol deviations likely to affect PK variables who received seletalisib; subjects who received placebo were excluded from this analysis. In Study-1 and Study-2, sample sizes of 57 and 36 subjects, respectively, were considered sufficient to permit assessment of the safety and tolerability of seletalisib and were not based on statistical considerations of power and sample size. In Study-1 (Part-A), a panel size of 15 subjects was selected to achieve good estimates of the PK/PD parameters.

[3] = Study-1 Part-A, single dose 1 mg fasted, geo mean (GeoCV%)
[4] = Study-1 Part-A, single dose 5 mg fasted, geo mean (GeoCV%)
[5] = Study-1 Part-A, single dose 5 mg fed, geo mean (GeoCV%)
[6] = Study-1 Part-A, single dose 10 mg fasted, geo mean (GeoCV%)
[7] = Study-1 Part-A, single dose 15 mg fasted, geo mean (GeoCV%)
[8] = 1 mg, Study-1 Part-A, single dose 1 mg fasted, geo mean (GeoCV%)
[9] = 5 mg, Study-1 Part-A, single dose 5 mg fasted, geo mean (GeoCV%)
[10] = 5 mg, Study-1 Part-A, single dose 5 mg fed, geo mean (GeoCV%)
[11] = 10 mg, Study-1 Part-A, single dose 10 mg fasted, geo mean (GeoCV%)
[12] = 15 mg, Study-1 Part-A, single dose 15 mg fasted, geo mean (GeoCV%)

**Q.** Which results are given for `[O-][n+]1cccc(-c2nc3c(Cl)cccc3cc2[C@@H](Nc2ncnc3cccnc23)C(F)(F)F)c1` [Seletalisib, seletalisib]?
**A.** food effect ([1]; Study-1 Part-A, 5 mg fed (high-fat, high-calorie meal) vs fasted): No clinically significant food effect; geometric mean fraction of drug excreted in urine ([1]; Study-1 Part-A, parent drug, across dose groups): < 6%; CL/F [1, 3]: 1.93 (33.4) L/h; CL/F [1, 4]: 2.19 (34.3) L/h; CL/F [1, 5]: 1.87 (44.6) L/h; CL/F [1, 6]: 1.93 (17.3) L/h; CL/F [1, 7]: 1.93 (25.4) L/h; Fe [1, 3]: 5.79 (56.6) %; Fe [1, 4]: 5.37 (35.3) %; Fe [1, 5]: 4.81 (49.6) %; Fe [1, 6]: 4.76 (66.0) %; Fe [1, 7]: 4.59 (33.6) %; AUC [1, 8]: 518 ng·h/mL; AUC(0-t) [1, 8]: 473 ng·h/mL; Cmax [1, 8]: 26.7 ng/mL; Vd/F [1, 8]: 51.5 L; half-life ([1]; 1 mg, Study-1 Part-A, single dose 1 mg fasted, geo mean (GeoCV%), read-out: t1/2 (converted)): 18.5 h; Tmax ([1]; 1 mg, Study-1 Part-A, single dose 1 mg fasted, median (range), read-out: tmax): 1.77 h; AUC [1, 9]: 2290 ng·h/mL; AUC(0-t) [1, 9]: 2100 ng·h/mL; Cmax [1, 9]: 109 ng/mL; Vd/F [1, 9]: 59.2 L; half-life ([1]; 5 mg, Study-1 Part-A, single dose 5 mg fasted, geo mean (GeoCV%), read-out: t1/2 (converted)): 18.8 h; Tmax ([1]; 5 mg, Study-1 Part-A, single dose 5 mg fasted, median (range), read-out: tmax): 2.01 h; AUC [1, 10]: 2680 ng·h/mL; AUC(0-t) [1, 10]: 2480 ng·h/mL; Cmax [1, 10]: 105 ng/mL; Vd/F [1, 10]: 47.6 L; half-life ([1]; 5 mg, Study-1 Part-A, single dose 5 mg fed, geo mean (GeoCV%), read-out: t1/2 (converted)): 17.7 h; Tmax ([1]; 5 mg, Study-1 Part-A, single dose 5 mg fed, median (range), read-out: tmax): 4 h; AUC [1, 11]: 5170 ng·h/mL; AUC(0-t) [1, 11]: 4800 ng·h/mL; Cmax [1, 11]: 279 ng/mL; Vd/F [1, 11]: 54 L; half-life ([1]; 10 mg, Study-1 Part-A, single dose 10 mg fasted, geo mean (GeoCV%), read-out: t1/2 (converted)): 19.4 h; Tmax ([1]; 10 mg, Study-1 Part-A, single dose 10 mg fasted, median (range), read-out: tmax): 1.77 h; AUC [1, 12]: 7760 ng·h/mL; AUC(0-t) [1, 12]: 7000 ng·h/mL; Cmax [1, 12]: 313 ng/mL; Vd/F [1, 12]: 58.7 L; half-life ([1]; 15 mg, Study-1 Part-A, single dose 15 mg fasted, geo mean (GeoCV%), read-out: t1/2 (converted)): 21.1 h; Tmax ([1]; 15 mg, Study-1 Part-A, single dose 15 mg fasted, median (range), read-out: tmax): 3 h; half-life ([1]; Study-1, range across dose groups, read-out: geometric mean t1/2): 17.7 to 21.1 h; Tmax ([1]; Study-1 Part-A, single dose, range across fasted treatment groups, read-out: median tmax): 1.8 to 3 h; CL renal [1, 8]: 1.87 mL/min; CL renal [1, 9]: 1.95 mL/min; CL renal [1, 10]: 1.5 mL/min; CL renal [1, 11]: 1.53 mL/min; CL renal [1, 12]: 1.48 mL/min; Ae(0–t) [1, 3]: 0.058 (56.6) mg; Ae(0–t) [1, 4]: 0.269 (35.3) mg; Ae(0–t) [1, 5]: 0.241 (49.6) mg; Ae(0–t) [1, 6]: 0.476 (66.0) mg; Ae(0–t) [1, 7]: 0.689 (33.6) mg; Deaths ([2]; 5 mg, 14 days): 0 n (%); Deaths ([2]; 8 mg, 14 days): 0 n (%); Deaths ([2]; 15 mg, 14 days (psoriasis cohort)): 0 n (%); Deaths ([2]; seletalisib total): 0 n (%); glucose handling versus baseline (oral glucose tolerance test) ([2]; in vivo): no significant alteration; neutrophil counts ([2]; in vivo): Modest reductions; number of AEs of potential GI disturbance ([2]; in vivo): Six; number of moderate AEs ([2]; in vivo): three

Source: article PMC5384962, “First-in-human studies of seletalisib, an orally bioavailable small-molecule PI3Kδ inhibitor for the treatment of immune and inflammatory diseases” (European Journal of Clinical Pharmacology, 2017)
